Target: Coagulation factor X (Homo sapiens, UniProt P00742)
Assay: Inhibition of factor Xa (unknown origin) using Bz-lle-Glu-Gly-Arg-pNA as chromogenic substrate preincubated for 30 mins followed by substrate addition by absorbance based analysis

Coagulation factor X, sequence (P00742 41-179 limits assumed): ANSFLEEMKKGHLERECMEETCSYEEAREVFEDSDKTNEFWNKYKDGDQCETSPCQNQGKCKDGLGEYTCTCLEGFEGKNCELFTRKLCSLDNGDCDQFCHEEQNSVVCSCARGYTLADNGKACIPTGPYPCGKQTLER
Coagulation factor X, sequence (P00742 235-488 limits assumed): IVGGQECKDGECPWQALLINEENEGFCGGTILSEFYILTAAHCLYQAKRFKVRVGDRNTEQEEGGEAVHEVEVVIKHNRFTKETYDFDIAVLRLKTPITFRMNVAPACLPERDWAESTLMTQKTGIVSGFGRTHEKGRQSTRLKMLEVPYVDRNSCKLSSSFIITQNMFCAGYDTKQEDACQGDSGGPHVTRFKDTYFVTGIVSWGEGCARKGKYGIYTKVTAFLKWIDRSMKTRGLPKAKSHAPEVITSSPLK

Row | IC50 | Compound
1 | > 20 µM | CC(=O)N[C@H]1Cc2ccc(cc2)OCC=CCNC(=O)C[C@@H](C(=O)N[C@@H](CCCNC(=N)N)C(=O)c2nc3ccccc3s2)NC(=O)[C@H](CC(C)C)NC1=O
2 | > 20 µM | CC(=O)N[C@H]1Cc2ccc(cc2)OCC=CCNC(=O)CC[C@@H](C(=O)N[C@@H](CCCNC(=N)N)C(=O)c2nc3ccccc3s2)NC(=O)[C@H](CC(C)C)NC1=O
